According to patent US20110165128A1, “HOMING IN MESENCHYMAL STEM CELLS” (Columbia University in the City of New York, priority 2008, published 2011):

Test system: adhesion of hMSCs to HUVECs
Experiment: Adhesion assay: adhesion of hMSCs to endothelial cells (HUVECs)
Format: cell-based, human
Conditions: 0.5 μg/ml SDF-1 or 10 μM AMD3100
Text: Exposure of cells to hypoxia: HUVECs were exposed to hypoxia in a BD GasPak EZ Anaerobe Gas Generating Pouch System with an Indicator (BD Biosciences) as described (Potapova, 2007). As certified by the manufacturer, the Anaerobe Gas Generating Pouch System produces an atmosphere containing 10% carbon dioxide and 1% oxygen.
Adhesion Assay: Adhesion of hMSCs to endothelial cells was studied using hMSCs isolated from a monolayer or 3 day old hMSC spheroids. Cells were dissociated using 0.25% trypsin-EDTA solution (Lonza) for 15 min in the case of hMSC monolayers, or for 90 min in the case of the spheroids. Trypsinization was stopped by addition of trypsin inhibitor solution (Lonza). Isolated cells were washed with PBS, labeled with 2 μg/ml Calcein AM in HBSS for 45 min at 37 °C in a humidified atmosphere of 5% CO2, washed with HBSS and resuspended in DMEM supplemented with 5% fetal bovine serum. HUVECs were plated in 24 well plates and maintained in EBM-2 growth media for 2-3 days until they reached confluence. For the adhesion assay, EBM-2 media was replaced with 0.5 ml of DMEM supplemented with 5% fetal bovine serum. hMSCs (10,000 cells per well) were added to endothelial cells. The adhesion assay was performed in the presence 0.5 μg/ml SDF-1, 10 μM AMD3100 or without additives. Plates were placed on a rotation platform (30 rotations per min) and incubated for 30 min at 37° C. […] Fluorescence was acquired from the bottom of the plates using a POLARstar OPTIMA microplate reader at excitation/emission wavelengths of 485/520 nm. Background fluorescence was determined in the wells containing no hMSCs but a monolayer of endothelial cells. Total cell load was estimated as the fluorescence from non-washed wells with added hMSCs. A minimum six wells were used to estimate background fluorescence, total cell load or fluorescence from adhered cells. Percent of bound cells was calculated as a ratio between fluorescence of adhered cells and total cell load after subtraction of background fluorescence. […]

## c1cc(CN2CCCNCCNCCCNCC2)ccc1CN1CCCNCCNCCCNCC1 [AMD3100]
Cells from 3 day old hMSC spheroids, HUVECs pre-exposed to hypoxia
  effect on the adhesion of cells from the spheroids to endothelial cells preexposed to hypoxia: no effect
Cells from 3 day old hMSC spheroids, normoxic HUVECs
  stimulation of the adhesion of cells from the spheroids to normoxic endothelial cells: 1.7±0.4 times
hMSCs from a monolayer, normoxic or pre-exposed to hypoxia HUVECs
  effect on the adhesion of hMSCs from a monolayer to endothelial cells: Neither SDF-1 nor AMD3100 affected the adhesion
